Source: PubChem BioAssay AID2060500 (Molecular Pharmacology Branch, DTP, NCI, 2025)

System: 596521-263-R-J1-PDC complex spheroids, viability % of control
Test: Anticancer human tumor 596521-263-R-J1-PDC patient-derived soft tissue sarcoma cell line growth inhibition [GQUAD]
Settings: for IC50: curve of first compound; for viability, T/C: stronger effect = lower value
Method in brief: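 Viability of tumor cells grown as complex spheroids with endothelial and stromal cells, exposed to drug combinations. Top concentration at or near clinical Cmax (else 10 microM), diluted in half-log increments.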

[1] = second compound 0.0316 µM, first compound 0.0316 µM
[2] = second compound 0.0316 µM, first compound 0.1 µM
[3] = second compound 0.0316 µM, first compound 0.316 µM
[4] = second compound 0.0316 µM, first compound 1 µM
[5] = second compound 0.0316 µM, first compound 3.16 µM
[6] = second compound 0.0316 µM, first compound 10 µM
[7] = second compound 0.1 µM, first compound 0.0316 µM
[8] = second compound 0.1 µM, first compound 0.1 µM
[9] = second compound 0.1 µM, first compound 0.316 µM
[10] = second compound 0.1 µM, first compound 1 µM
[11] = second compound 0.1 µM, first compound 3.16 µM
[12] = second compound 0.1 µM, first compound 10 µM
[13] = second compound 0.316 µM, first compound 0.0316 µM
[14] = second compound 0.316 µM, first compound 0.1 µM
[15] = second compound 0.316 µM, first compound 0.316 µM
[16] = second compound 0.316 µM, first compound 1 µM
[17] = second compound 0.316 µM, first compound 3.16 µM
[18] = second compound 0.316 µM, first compound 10 µM
[19] = second compound 1 µM, first compound 0.0316 µM
[20] = second compound 1 µM, first compound 0.1 µM
[21] = second compound 1 µM, first compound 0.316 µM
[22] = second compound 1 µM, first compound 1 µM
[23] = second compound 1 µM, first compound 3.16 µM
[24] = second compound 1 µM, first compound 10 µM
[25] = second compound 3.16 µM, first compound 0.0316 µM
[26] = second compound 3.16 µM, first compound 0.1 µM
[27] = second compound 3.16 µM, first compound 0.316 µM
[28] = second compound 3.16 µM, first compound 1 µM
[29] = second compound 3.16 µM, first compound 3.16 µM
[30] = second compound 3.16 µM, first compound 10 µM
[31] = second compound 10 µM, first compound 0.0316 µM
[32] = second compound 10 µM, first compound 0.1 µM
[33] = second compound 10 µM, first compound 0.316 µM
[34] = second compound 10 µM, first compound 1 µM
[35] = second compound 10 µM, first compound 3.16 µM
[36] = second compound 10 µM, first compound 10 µM
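Further: spheroids exposed to drugs for 7 days before viability reading.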
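Wherever viability, T/C is given: 100% = DMSO vehicle control viability.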

C=CC(=O)N1CCN(c2nc(=O)n(-c3c(C)ccnc3C(C)C)c3nc(-c4c(O)cccc4F)c(F)cc23)C(C)C1 (centres undefined) + Cc1cnc(CNC(=O)c2c(=O)c3ccc(N4CCCN(C)CC4)nc3n3c2sc2ccccc23)cn1 gave an IC50 (second compound 0.0316 µM) greater than 10 µM, an IC50 (second compound 0.1 µM) greater than 10 µM and an IC50 (second compound 0.316 µM) greater than 10 µM. For the same compound, the IC50 (second compound 1 µM) was greater than 10 µM, the IC50 (second compound 3.16 µM) was greater than 10 µM and the IC50 (second compound 10 µM) was less than 0.0316 µM. The viability, T/C [1] was 104%, the viability, T/C [2] was 101% and the viability, T/C [3] was 103%. It also gave a viability, T/C [4] of 112%, a viability, T/C [5] of 108% and a viability, T/C [6] of 75.8%. It also gave a viability, T/C [7] of 88.3%, a viability, T/C [8] of 86.1% and a viability, T/C [9] of 91.8%. The viability, T/C [10] was 107%, the viability, T/C [11] was 103% and the viability, T/C [12] was 77.6%. For the same compound, the viability, T/C [13] was 89.5%, the viability, T/C [14] was 85.1% and the viability, T/C [15] was 90.5%. The viability, T/C [16] was 81.1%, the viability, T/C [17] was 92.4% and the viability, T/C [18] was 69.1%. For the same compound, the viability, T/C [19] was 67.8%, the viability, T/C [20] was 64.8% and the viability, T/C [21] was 67%. For the same compound, the viability, T/C [22] was 71.2%, the viability, T/C [23] was 76.7% and the viability, T/C [24] was 63.2%. For the same compound, the viability, T/C [25] was 57.2%, the viability, T/C [26] was 56.5% and the viability, T/C [27] was 61.8%. The viability, T/C [28] was 60%, the viability, T/C [29] was 81.4% and the viability, T/C [30] was 61.8%. It also gave a viability, T/C [31] of 51.1%, a viability, T/C [32] of 30.9% and a viability, T/C [33] of 48.6%. The viability, T/C [34] was 51%, the viability, T/C [35] was 63.7% and the viability, T/C [36] was 39.5%.

Work on CC(C)n1c(=O)n(C)c2cnc3cc(F)c(-c4ccc(OCCCN5CCCCC5)nc4)cc3c21 + Cc1cnc(CNC(=O)c2c(=O)c3ccc(N4CCCN(C)CC4)nc3n3c2sc2ccccc23)cn1 yielded an IC50 (second compound 0.0316 µM) greater than 10 µM, an IC50 (second compound 0.1 µM) greater than 10 µM and an IC50 (second compound 0.316 µM) greater than 10 µM. It also gave an IC50 (second compound 1 µM) greater than 10 µM, an IC50 (second compound 3.16 µM) of 0.224 µM and an IC50 (second compound 10 µM) of less than 0.0316 µM. For the same compound, the viability, T/C [1] was 82.1%, the viability, T/C [2] was 67% and the viability, T/C [3] was 78.3%. For the same compound, the viability, T/C [4] was 73%, the viability, T/C [5] was 75.5% and the viability, T/C [6] was 61.9%. The viability, T/C [7] was 70.6%, the viability, T/C [8] was 61.3% and the viability, T/C [9] was 68.2%. It also gave a viability, T/C [10] of 63.9%, a viability, T/C [11] of 58.6% and a viability, T/C [12] of 57.8%. It also gave a viability, T/C [13] of 69.3%, a viability, T/C [14] of 67.3% and a viability, T/C [15] of 63.5%. For the same compound, the viability, T/C [16] was 62.5%, the viability, T/C [17] was 62.4% and the viability, T/C [18] was 47.6%. The viability, T/C [19] was 63.8%, the viability, T/C [20] was 61.8% and the viability, T/C [21] was 52.3%. The viability, T/C [22] was 54.3%, the viability, T/C [23] was 64.4% and the viability, T/C [24] was 48.3%. For the same compound, the viability, T/C [25] was 51.6%, the viability, T/C [26] was 53.3% and the viability, T/C [27] was 49.7%. For the same compound, the viability, T/C [28] was 46.4%, the viability, T/C [29] was 42.5% and the viability, T/C [30] was 40.3%. For the same compound, the viability, T/C [31] was 51.8%, the viability, T/C [32] was 44.7% and the viability, T/C [33] was 44.9%. For the same compound, the viability, T/C [34] was 44.9%, the viability, T/C [35] was 46.7% and the viability, T/C [36] was 9.8%.
